In patent US20230127326A1, “C3-SUBSTITUTED 1H-PYRAZOLO[4,3-d]PYRIMIDINE COMPOUNDS AS TOLL-LIKE RECEPTOR 7 (TLR7) AGONISTS” (BRISTOL-MYERS SQUIBB COMPANY, priority 2020, published 2023):

Assays:
CD69 = experiment: Induction of CD69 in human whole blood; assay type: cell-based; settings: 17 hrs at 37° C., y-axis 100% set to 1 uM of resiquimod, average where assay was performed multiple times, read-out: hWB CD69 EC50
Description: The induction of Type I interferon (IFN) MX-1 genes and the B-cell activation marker CD69 are downstream events that occur upon activation of the TLR7 pathway. The following is a human whole blood assay that measures their induction in response to a TLR7 agonist.
Heparinized human whole blood was harvested from human subjects and treated with test TLR7 agonist compounds at 1 mM. The blood was diluted with RPMI 1640 media and Echo was used to predot 10 nL per well giving a final concentration of 1 uM (10 nL in 10 uL of blood). After mixing on a shaker for 30 sec, the plates were covered and placed in a 37° C. chamber for o/n=17 hrs. Fixing/lysis buffer was prepared (5×->1× in H2O, warm at 37° C.; Cat #BD 558049) and kept the perm buffer (on ice) for later use.
For surface markers staining (CD69): prepared surface Abs: 0.045 ul hCD14-FITC (ThermoFisher Cat #MHCD1401)+0.6 ul hCD19-ef450 (ThermoFisher Cat #48-0198-42)+1.5 ul hCD69-PE (cat #BD555531)+0.855 ul FACS buffer. Added 3 ul/well, spin 1000 rpm for 1 min and mixed on shaker for 30 sec, put on ice for 30 mins. Stop stimulation after 30 minutes with 70 uL of prewarmed 1× fix/lysis buffer and use Feliex mate to resuspend (15 times, change tips for each plate) and incubate at 37 C for 10 minutes.
Centrifuge at 2000 rpm for 5 minutes aspirate with HCS plate washer, mix on shaker for 30 sec and then wash with 70 uL in dPBS and pelleted 2×s (2000 rpm for 5 min) and 50 ul wash in FACS buffer pelleted 1×s (2000 rpm for 5 min). Mix on shaker for 30 sec. For Intracellular markers staining (MX-1): Add 50 ul of BD Perm buffer III and mix on shaker for 30 sec. Incubate on ice for 30 minutes (in the dark). Wash with 50 uL of FACS buffer 2× (spin @2300 rpm×5 min after perm) followed by mixing on shaker for 30 sec. Resuspended in 20 ul of FACS buffer containing MX1 antibody ( )(4812)-Alexa 647: Novus Biologicals #NBP2-43704AF647) 20 ul FACS bf+0.8 ul hIgG+0.04 ul MX-1. Spin 1000 rpm for 1 min, mix on shaker for 30 se and the samples were incubated at RT in the dark for 45 minutes followed by washing 2×FACS buffer (spin @2300 rpm×5 min after perm). Resuspend 20 ul (35 uL total per well) of FACS buffer and cover with foil and place in 4° C. to read the following day. Plates were read on iQuePlus. The results were loaded into toolset and […] curves are generated in curve master. The y-axis 100% is set to 1 uM of resiquimod.

human TLR7 = target: T1, human TLR7 (Homo sapiens, UniProt Q9NYK1); experiment: Human TLR7 agonist activity reporter assay (HEK-Blue TLR7 cells, SEAP reporter); assay type: cell-based; settings: 18 h treatment, average where assay was performed multiple times, read-out: hTLR7 Agonism EC50
T1 construct: host or cells: HEK-Blue TLR7 cells (engineered human embryonic kidney cells)
T1 sequence (Q9NYK1 27-1049): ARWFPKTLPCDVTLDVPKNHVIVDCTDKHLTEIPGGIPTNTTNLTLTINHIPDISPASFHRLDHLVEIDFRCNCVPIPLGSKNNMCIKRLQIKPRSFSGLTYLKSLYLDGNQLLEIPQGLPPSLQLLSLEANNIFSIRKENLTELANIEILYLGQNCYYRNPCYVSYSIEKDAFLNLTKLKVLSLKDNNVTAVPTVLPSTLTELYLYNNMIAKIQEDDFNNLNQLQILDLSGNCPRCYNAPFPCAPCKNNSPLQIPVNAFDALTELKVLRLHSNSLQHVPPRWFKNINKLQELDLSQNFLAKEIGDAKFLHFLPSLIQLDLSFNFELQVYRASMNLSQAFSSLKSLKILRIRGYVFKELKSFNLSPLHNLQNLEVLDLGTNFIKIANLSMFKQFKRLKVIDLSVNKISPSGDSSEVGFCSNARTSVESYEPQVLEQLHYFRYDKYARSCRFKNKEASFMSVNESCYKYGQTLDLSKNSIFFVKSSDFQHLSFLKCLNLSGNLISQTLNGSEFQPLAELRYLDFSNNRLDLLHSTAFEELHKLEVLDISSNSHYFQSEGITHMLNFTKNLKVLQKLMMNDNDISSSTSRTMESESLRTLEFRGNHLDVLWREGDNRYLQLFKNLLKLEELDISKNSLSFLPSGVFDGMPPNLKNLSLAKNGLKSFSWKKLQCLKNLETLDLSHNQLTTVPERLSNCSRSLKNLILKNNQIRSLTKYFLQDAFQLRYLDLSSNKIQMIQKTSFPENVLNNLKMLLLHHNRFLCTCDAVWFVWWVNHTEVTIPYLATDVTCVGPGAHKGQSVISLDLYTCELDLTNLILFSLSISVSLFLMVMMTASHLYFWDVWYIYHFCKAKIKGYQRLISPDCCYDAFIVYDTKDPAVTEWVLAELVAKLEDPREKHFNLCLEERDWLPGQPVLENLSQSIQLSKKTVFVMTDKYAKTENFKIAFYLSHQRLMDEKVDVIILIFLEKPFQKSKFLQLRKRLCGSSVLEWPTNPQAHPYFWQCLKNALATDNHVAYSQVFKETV
Description: This procedure describes a method for assaying human TLR7 (hTLR7) agonist activity of the compounds disclosed in this specification.
HEK-Blue™ TLR7 cells were added to each well of a 384-well tissue-culture plate (15,000 cells per well) and incubated 16-18 h at 37° C., 5% CO2. Compounds (100 nl) were dispensed into wells containing the HEK-Blue™ TLR cells and the treated cells were incubated at 37° C., 5% CO2. After 18 h treatment ten microliters of freshly-prepared Quanti-Blue™ reagent (Invivogen) was added to each well, incubated for 30 min (37° C., 5% CO2) and SEAP levels measured using an Envision plate reader (OD=620 nm). The half maximal effective concentration values (EC50; compound concentration which induced a response halfway between the assay baseline and maximum) were calculated.

Structure (SMILES) | EC50 (CD69) [µM] | EC50 (human TLR7) [µM]
CCCCNc1nc(N)nc2c(Br)nn(Cc3ccc(CNC4CCOCC4)cc3OC)c12 [Compound 101, 3-bromo-N7-butyl-1-[(2-methoxy-4-{[(oxan-4-yl)amino]methyl}phenyl)-methyl]-1H-pyrazolo[4,3-d]pyrimidine-5,7-diamine] | 0.365 | 2
CCCCNc1nc(N)nc2c(C3CC3)nn(Cc3ccc(CNC4CCOCC4)cc3OC)c12 [Compound 102, N7-butyl-3-cyclopropyl-1-[(2-methoxy-4-{[(oxan-4-yl)amino]methyl}phenyl)-methyl]-1H-pyrazolo[4,3-d]pyrimidine-5,7-diamine] | 0.0345 | 0.21
CCCCNc1nc(N)nc2c(C)nn(Cc3ccc(CNC4CCC4)cc3OC)c12 [Compound 103, N7-butyl-1-({4-[(cyclobutylamino)methyl]-2-methoxyphenyl}methyl)-3-methyl-1H-pyrazolo[4,3-d]pyrimidine-5,7-diamine] | 0.0154 | 0.101
CCCCNc1nc(N)nc2c(C)nn(Cc3ccc(CNC4CCOCC4)cc3OC)c12 [Compound 104, N7-butyl-1-[(2-methoxy-4-{[(oxan-4-yl)amino]methyl}-phenyl)methyl]-3-methyl-1H-pyrazolo[4,3-d]pyrimidine-5,7-diamine] | 0.0418 | 0.0913
CCCCNc1nc(N)nc2c(C)nn(Cc3ccc(CN4CCN(C)CC4)cc3OC)c12 [Compound 105, N7-butyl-1-({2-methoxy-4-[(4-methylpiperazin-1-yl)methyl]phenyl}methyl)-3-methyl-1H-pyrazolo[4,3-d]pyrimidine-5,7-diamine] | 0.0094 | 0.0623
CCCCNc1nc(N)nc2c(C)nn(Cc3ccc(CN4CCN(CCO)CC4)cc3OC)c12 [Compound 106, 2-{4-[(4-{[5-amino-7-(butylamino)-3-methyl-1H-pyrazolo[4,3-d]pyrimidin-1-yl]methyl}-3-methoxy-phenyl)methyl]piperazin-1-yl}ethan-1-ol] | 0.0206 | 0.0633
CCCCNc1nc(N)nc2c(F)nn(Cc3ccc(CNC4CCC4)cc3OC)c12 [Compound 107, N7-butyl-1-({4-[(cyclobutylamino)methyl]-2-methoxyphenyl}methyl)-3-fluoro-1H-pyrazolo[4,3-d]pyrimidine-5,7-diamine] | 0.0284 | 0.0465
CCCCNc1nc(N)nc2c(F)nn(Cc3ccc(CNC4CCOCC4)cc3OC)c12 [Compound 108, N7-butyl-3-fluoro-1-[(2-methoxy-4-{[(oxan-4-yl)amino]methyl}phenyl)-methyl]-1H-pyrazolo[4,3-d]pyrimidine-5,7-diamine] | 0.0872 | 0.072
CCCCNc1nc(N)nc2c(F)nn(Cc3ccc(CN4CCN(C)CC4)cc3OC)c12 [Compound 109, N7-butyl-3-fluoro-1-({2-methoxy-4-[(4-methyl-piperazin-1-yl)methyl]-phenyl}methyl)-1H-pyrazolo[4,3-d]pyrimidine-5,7-diamine] | 0.0084 | 0.0121
CCCCNc1nc(N)nc2c(F)nn(Cc3ccc(CN4CCN(CCO)CC4)cc3OC)c12 [Compound 110, 2-{4-[(4-{[5-amino-7-(butylamino)-3-fluoro-1H-pyrazolo[4,3-d]pyrimidin-1-yl]methyl}-3-methoxyphenyl)methyl]-piperazin-1-yl}ethan-1-ol] | 0.0449 | 0.0229
CCCCNc1nc(N)nc2c(Cl)nn(Cc3ccc(CNC4CCOCC4)cc3OC)c12 [Compound 111, N7-butyl-3-chloro-1-[(2-methoxy-4-{[(oxan-4-yl)amino]methyl}phenyl)-methyl]-1H-pyrazolo[4,3-d]pyrimidine-5,7-diamine] | 0.097 | 1.41
CCCCNc1nc(N)nc2c(-c3ccncc3)nn(Cc3ccc(CNC4CCOCC4)cc3OC)c12 [Compound 112, N7-butyl-1-[(2-methoxy-4-{[(oxan-4-yl)amino]-methyl}phenyl)methyl]-3-(pyridin-4-yl)-1H-pyrazolo[4,3-d]pyrimidine-5,7-diamine] | 1 | 2.43
CCCCNc1nc(N)nc2c(-c3ccccc3)nn(Cc3ccc(CNC4CCOCC4)cc3OC)c12 [Compound 113, N7-butyl-1-[(2-methoxy-4-{[(oxan-4-yl)amino]methyl}-phenyl)methyl]-3-phenyl-1H-pyrazolo[4,3-d]pyrimidine-5,7-diamine] | 1 | –
CCCCNc1nc(N)nc2c(-c3cccnc3)nn(Cc3ccc(CNC4CCOCC4)cc3OC)c12 [Compound 114, N7-butyl-1-[(2-methoxy-4-{[(oxan-4-yl)amino]methyl}-phenyl)methyl]-3-(pyridin-3-yl)-1H-pyrazolo[4,3-d]pyrimidine-5,7-diamine] | 0.0427 | 0.291
CCCCNc1nc(N)nc2c(C(F)(F)F)nn(Cc3ccc(CNC4CCOCC4)cc3OC)c12 [Compound 117, N7-butyl-1-[(2-methoxy-4-{[(oxan-4-yl)amino]methyl}-phenyl)methyl]-3-(trifluoro-methyl)-1H-pyrazolo[4,3-d]pyrimidine-5,7-diamine] | 1 | –
CCC[C@@H](CCO)Nc1nc(N)nc2c(C)nn(Cc3ncc(CN4CCN(CCO)CC4)cc3OC)c12 [Compound 135, (3S)-3-({5-amino-1-[(5-{[4-(2-hydroxyethyl)piperazin-1-yl]methyl}-3-methoxypyridin-2-yl)methyl]-3-methyl-1H-pyrazolo[4,3-d]pyrimidin-7-yl}amino)hexan-1-ol] | – | 1.11
CCCCNc1nc(N)nc2c(C)nn(Cc3ccc(CN4CCN(CCOC)CC4)cc3OC)c12 [Compound 136, N7-butyl-1-[(2-methoxy-4-{[4-(2-methoxyethyl)piperazin-1-yl]methyl}phenyl)methyl]-3-methyl-1H-pyrazolo[4,3-d]pyrimidine-5,7-diamine] | – | 0.163
CCCCNc1nc(N)nc2c(C)nn(Cc3ccc(CN4CCN(CC(C)(C)O)CC4)cc3OC)c12 [Compound 137, 1-{4-[(4-{[5-amino-7-(butylamino)-3-methyl-1H-pyrazolo[4,3-d]pyrimidin-1-yl]methyl}-3-methoxyphenyl)methyl]piperazin-1-yl}-2-methylpropan-2-ol] | – | 0.0658
